Where a SMILES comes first, the peptide text is derived from it. Bridges are numbered along the chain shown (N, C = ends). [ ]: non-standard residue; d: D form. The star is where a group is joined. d(aIle) = CC[C@H](C)[C@@H](N)C(=O)O; d(aThr) = C[C@@H](O)[C@@H](N)C(=O)O; Hexanoyl(5-Me) = CC(C)CCCC(=O)*; Dhb = C/C=C(\N)C(=O)O
Key:
Format in all cases: cell-based, human
LoVo-Dox = assay: SRB colorimetric assay of cell growth and viability, LoVo-Dox; settings: 48 hours exposure; for CC50: read-out: LC50 LOVO-DOX
Procedure, shortened: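 Tumor cells are continuously exposed to sample for 48 hours, with vehicle DMSO:EtOH:PBS (0.5:0.5:99), after an 18-hour drug-free attachment period. Bound SRB, measured at 490 nm, reflects cell mass; GI, TGI and LC are derived from triplicate means.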

LNCaP = assay: SRB colorimetric assay of cell growth and viability, LNCaP; settings: 48 hours exposure; for GI50: read-out: GI50 LN-caP; for CC50: read-out: LC50 LN-caP
SK-OV-3 = assay: SRB colorimetric assay of cell growth and viability, SK-OV-3; settings: 48 hours exposure
From the text: The finality of this assay is to interrupt the growth of a “in vitro” tumor cell culture by means a continued exhibition of the cells to the sample to be testing.
A colorimetric type of assay, using sulforhodamine B (SRB) reaction has been adapted for a quantitative measurement of cell growth and viability [following the technique described by Philip Skehan, et al. (1990), New colorimetric cytotoxicity assay for anticancer drug screening, J. Natl. Cancer Inst., 82:1107-1112].
This form of the assay employs 96 well cell culture microplates of 9 mm diameter (Faircloth, 1988; Mosmann, 1983). Most of the cell lines are obtained from American Type Culture Collection (ATCC) derived from different human cancer types.
Cells are maintained in RPMI 1640 10% FBS, supplemented with 0.1 g/l penicillin and 0.1 g/l streptomycin sulfate and then incubated at 37° C., 5% CO2 and 98% humidity. For the experiments, cells were harvested from subconfluent cultures using trypsin and resuspended in fresh medium before plating.
Cells are seeded in 96 well microtiter plates, at 5×10^3 cells per well in aliquots of 195 μL medium, and they are allowed to attach to the plate surface by growing in drug free medium for 18 hours. Afterward, samples are added in aliquots of 5 μL in a ranging from 10 to 10^−8 μg/mL, dissolved in DMSO:EtOH:PBS (0.5:0.5:99). After 48 hours exposure, the antitumor effect are measured by the SRB methodology: cells are fixed by adding 50 μL of cold 50% (wt/vol) trichloroacetic acid (TCA) and incubating for 60 minutes at 4° C. Plates are washed with deionized water and dried. One hundred μL of SRB solution (0.4% wt/vol in 1% acetic acid) is added to each microtiter well and incubated for 10 minutes at room temperature. Unbound SRB is removed by washing with 1% acetic acid. Plates are air dried and bound stain is solubilized with Tris buffer. Optical densities are read on a automated spectrophotometric plate reader at a single wavelength of 490 nm.
The values for mean+/− SD of data from triplicate wells are calculated. Some parameters for cellular responses can be calculated: GI=growth inhibition, TGI=total growth inhibition (cytostatic effect) and LC=cell killing (cytotoxic effect).

PANC-1 = assay: SRB colorimetric assay of cell growth and viability, PANC-1; settings: 48 hours exposure; for CC50: read-out: LC50 PANC-1
IGROV-1 = assay: SRB colorimetric assay of cell growth and viability, IGROV-1; settings: 48 hours exposure
LoVo = assay: SRB colorimetric assay of cell growth and viability, LoVo; settings: 48 hours exposure; for CC50: read-out: LC50 LOVO
A-549 = assay: SRB colorimetric assay of cell growth and viability, A-549; settings: 48 hours exposure; for GI50: read-out: GI50 A-549; for CC50: read-out: LC50 A-549
K-562 = assay: SRB colorimetric assay of cell growth and viability, K-562; settings: 48 hours exposure; for CC50: read-out: LC50 K-562
IGROV-ET = assay: SRB colorimetric assay of cell growth and viability, IGROV-ET; settings: 48 hours exposure; for CC50: read-out: LC50 IGROV-ET
DU-145 = assay: SRB colorimetric assay of cell growth and viability, DU-145; settings: 48 hours exposure
HT-29 = assay: SRB colorimetric assay of cell growth and viability, HT-29; settings: 48 hours exposure; for GI50: read-out: GI50 HT-29; for CC50: read-out: LC50 HT-29
SK-MEL-28 = assay: SRB colorimetric assay of cell growth and viability, SK-MEL-28; settings: 48 hours exposure; for CC50: read-out: LC50 MEL-28
SK-BR-3 = assay: SRB colorimetric assay of cell growth and viability, SK-BR-3; settings: 48 hours exposure
HeLa-APL = assay: SRB colorimetric assay of cell growth and viability, HeLa-APL; settings: 48 hours exposure
HeLa = assay: SRB colorimetric assay of cell growth and viability, HeLa; settings: 48 hours exposure

With C/C=C1\NC(=O)[C@H](Cc2ccccc2)NC(=O)[C@@H](C(C)C)NC(=O)[C@@H]([C@@H](C)CC)NC(=O)[C@H](NC(=O)[C@H](NC(=O)[C@H](CCC(=O)O)NC(=O)[C@H]2CCCN2C(=O)[C@H](NC(=O)[C@@H](NC(=O)[C@@H](NC(=O)[C@H](NC(=O)CCCC(C)C)C(C)C)[C@@H](C)O)C(C)C)C(C)C)[C@@H](C)CC)[C@@H](C)OC(=O)[C@H](C(C)C)NC1=O [Compound 4, [Glu^8]-KF] ({Hexanoyl(5-Me)}-[dV]TV[dV][dP]E[d(aIle)][d(aThr)][d(aIle)][dV]F[Dhb]V; ester 8-C) the GI50 (LoVo-Dox) was 757 nM, the “TGI LOVO-DOX” value (LoVo-Dox) was 1.77E−06 Molar and the CC50 (LoVo-Dox) was 4150 nM. For the same compound, the “TGI LN-caP” value (LNCaP) was 1.19E−06 Molar, the GI50 (LNCaP) was 371 nM and the CC50 (LNCaP) was 3620 nM. The “TGI SKOV-3” value (SK-OV-3) was 5.85E−07 Molar, the GI50 (SK-OV-3; read-out: GI50 SKOV-3) was 195 nM and the CC50 (SK-OV-3; read-out: LC50 SKOV-3) was 2260 nM. For the same compound, the GI50 (PANC-1) was 1820 nM, the “TGI PANC-1” value (PANC-1) was 3.46E−06 Molar and the CC50 (PANC-1) was 6600 nM. For the same compound, the GI50 (IGROV-1) was 490 nM, the LC50 (concentration causing 50% net cell killing) (IGROV-1) was 3310 nM and the “TGI IGROV” value (IGROV-1) was 1.29E−06 Molar. The GI50 (LoVo) was 348 nM, the “TGI LOVO” value (LoVo) was 6.45E−07 Molar and the CC50 (LoVo) was 2650 nM. For the same compound, the “TGI A-549” value (A-549) was 4.02E−06 Molar, the GI50 (A-549) was 1770 nM and the CC50 (A-549) was 6700 nM. For the same compound, the GI50 (K-562) was 2110 nM, the “TGI K-562” value (K-562) was 5.10E−06 Molar and the CC50 (K-562) was 6700 nM. The GI50 (IGROV-ET) was 817 nM, the “TGI IGROV-ET” value (IGROV-ET) was 1.69E−06 Molar and the CC50 (IGROV-ET) was 3520 nM. The GI50 (DU-145) was 1030 nM, the LC50 (concentration causing 50% net cell kill) (DU-145) was 3880 nM and the “TGI DU-145” value (DU-145) was 2.00E−06 Molar. The “TGI HT-29” value (HT-29) was 2.00E−06 Molar, the GI50 (HT-29) was 884 nM and the CC50 (HT-29) was 4550 nM. For the same compound, the GI50 (SK-MEL-28) was 2950 nM, the “TGI MEL-28” value (SK-MEL-28) was 6.70E−06 Molar and the CC50 (SK-MEL-28) was 6700 nM.
In the case of [(4RS)-MeHex^14]-KF [Compound 17], the GI50 (LoVo-Dox) was 180 nM, the “TGI LOVO-DOX” value (LoVo-Dox) was 3.66E−07 Molar and the CC50 (LoVo-Dox) was 1270 nM. For the same compound, the “TGI LN-caP” value (LNCaP) was 2.10E−06 Molar, the GI50 (LNCaP) was 934 nM and the CC50 (LNCaP) was 4750 nM. The GI50 (SK-BR-3) was 162 nM, the LC50 (SK-BR-3) was 606 nM and the “TGI SK-BR-3” value (SK-BR-3) was 3.14E−07 Molar. The GI50 (PANC-1) was 3820 nM, the “TGI PANC-1” value (PANC-1) was 6.77E−06 Molar and the CC50 (PANC-1) was ≥ 6770 nM. The GI50 (IGROV-1) was 185 nM, the LC50 (concentration causing 50% net cell killing) (IGROV-1) was 1490 nM and the “TGI IGROV” value (IGROV-1) was 3.96E−07 Molar. For the same compound, the GI50 (HeLa-APL) was 758 nM, the “TGI HELA-APL” value (HeLa-APL) was 1.86E−06 Molar and the CC50 (HeLa-APL; read-out: LC50 HELA-APL) was 4590 nM. The GI50 (LoVo) was 141 nM, the “TGI LOVO” value (LoVo) was 2.67E−07 Molar and the CC50 (LoVo) was 503 nM. For the same compound, the “TGI A-549” value (A-549) was 7.51E−07 Molar, the GI50 (A-549) was 240 nM and the CC50 (A-549) was 2890 nM. For the same compound, the GI50 (K-562) was 2370 nM, the “TGI K-562” value (K-562) was 4.07E−06 Molar and the CC50 (K-562) was ≥ 6770 nM. The GI50 (IGROV-ET) was 209 nM, the “TGI IGROV-ET” value (IGROV-ET) was 4.24E−07 Molar and the CC50 (IGROV-ET) was 1840 nM. For the same compound, the GI50 (DU-145) was 252 nM, the LC50 (concentration causing 50% net cell kill) (DU-145) was 2650 nM and the “TGI DU-145” value (DU-145) was 8.39E−07 Molar. The GI50 (HeLa) was 744 nM, the “TGI HELA” value (HeLa) was 1.71E−06 Molar and the CC50 (HeLa; read-out: LC50 HELA) was 3920 nM. The “TGI HT-29” value (HT-29) was 2.84E−07 Molar, the GI50 (HT-29) was 147 nM and the CC50 (HT-29) was 550 nM. The GI50 (SK-MEL-28) was 1300 nM, the “TGI MEL-28” value (SK-MEL-28) was 2.54E−06 Molar and the CC50 (SK-MEL-28) was 4960 nM.

— US20070117743A1, “New antitumoral compounds” (priority 2003, published 2007)
